# Measurements from patent publication US11980631B2, “β-lactamase inhibitors” (priority 2017, dated 2024).
# Where two headings read alike, the source gives them in different places.
# Key:
# L2 (class A ESBL) = L2 (class A ESBL) (Stenotrophomonas maltophilia (Pseudomonas maltophilia) (Xanthomonas maltophilia), UniProt P96465); assay: Steady-state hydrolysis of β-lactams by purified L2; format: biochemical, S. maltophilia
# Source text: (§1) As a prelude to investigation the effects of β-lactamase inhibitors, the hydrolysis of a range of candidate β-lactams in vitro by purified L1 (class B3 MBL) and L2 (class A ESBL) under steady state conditions were investigated.
# S. maltophilia = assay: microbe, parasite or virus in culture; format: cell-based, Stenotrophomonas maltophilia; conditions: no inhibitor; for MIC: Stenotrophomonas maltophilia
# Method: S. maltophilia clinical isolates were K279a, a well characterised isolate from Bristol, UK, or were obtained from the SENTRY antimicrobial resistance survey, as previously reported. […] All growth media were from Oxoid. Chemicals were from Sigma, unless otherwise stated.
# Susceptibility to β-lactams in bacterial isolates was determined using the CLSI microtitre minimum inhibitory concentration (MIC) methodology with Muller-Hinton Broth using 96 well plates (Corning, Costar). The MIC was determined as the lowest concentration of β-lactam required to entirely suppress growth. Inhibitor concentrations were kept constant at 2 mg/L or 10 mg/L in all assays. Interpretation of susceptibility/resistance was by reference to CLSI clinical breakpoints for S. maltophilia (ceftazidime) and for Pseudomonas aeruginosa (for aztreonam and meropenem, since no S. maltophilia breakpoints are available).
# L1 (class B3 MBL) = L1 (class B3 MBL) (Stenotrophomonas maltophilia (Pseudomonas maltophilia) (Xanthomonas maltophilia), UniProt P52700); assay: Steady-state hydrolysis of β-lactams by purified L1; format: biochemical, S. maltophilia
# L1 (class B3 MBL), sequence (P52700 whole entry, looked up): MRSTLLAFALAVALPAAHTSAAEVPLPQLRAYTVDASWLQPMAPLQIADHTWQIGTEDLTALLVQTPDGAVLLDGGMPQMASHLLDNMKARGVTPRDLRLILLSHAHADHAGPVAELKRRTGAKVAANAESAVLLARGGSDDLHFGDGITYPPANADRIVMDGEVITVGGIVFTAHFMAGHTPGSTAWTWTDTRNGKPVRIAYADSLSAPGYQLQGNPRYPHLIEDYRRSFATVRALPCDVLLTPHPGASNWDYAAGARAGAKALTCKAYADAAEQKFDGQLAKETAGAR
# Source text: as §1
# BlaC = BlaC (Mycobacterium tuberculosis (strain ATCC 25618 / H37Rv), UniProt P9WKD3); assay: BlaC inhibition assay (FC5 hydrolysis, fluorescence); format: biochemical
# BlaC, sequence (P9WKD3 35-307 limits assumed): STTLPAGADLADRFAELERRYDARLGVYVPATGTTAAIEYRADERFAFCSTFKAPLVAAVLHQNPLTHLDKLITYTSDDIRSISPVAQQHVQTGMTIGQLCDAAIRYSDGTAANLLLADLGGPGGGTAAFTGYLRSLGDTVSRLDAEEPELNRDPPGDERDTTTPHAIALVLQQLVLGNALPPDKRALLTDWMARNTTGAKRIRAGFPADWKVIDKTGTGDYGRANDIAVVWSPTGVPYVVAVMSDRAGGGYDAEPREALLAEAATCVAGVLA
# Method: Recombinant BlaC, with an N-terminal His-tag, was produced in E. coli BL21(DE3) cells using auto-induction medium supplemented with 50 μg mL^−1 ampicillin. Cells were grown for four hours at 37° C. before cooling to 18° C. and continuing growth overnight. Cells were harvested by centrifugation (10 min, 10000 g).
# FC5 was stored as a 2.5 mM solution in assay buffer supplemented with 10% (v/v) DMSO. Fluorescence measurements were made using a PHERAstar multi-mode plate reader (BMG Labtech). All assays were carried out at 25° C. Fluorescence assays were carried out using black 96 well format half area clear® plates (Greiner Bio-One) with a final assay volume of 100 μL. FC5 hydrolysis was followed by fluorescence (λex=380 nm, λem=460 nm) corresponding to the release of the umbelliferone fluorophore. The optimum concentration of enzyme for steady-state measurements was determined by examining the rate of substrate hydrolysis at varied concentrations of enzyme, with the concentration at which the initial rate remained constant for 5-10 min being selected as an appropriate enzyme concentration. Initial rates of substrate hydrolysis were determined at varying substrate concentrations. Steady-state kinetic parameters were determined by fitting of initial rates to the Michaelis-Menten equation using GraphPad Prism 5 software.
# Inhibition assays were performed by monitoring the initial rate of FC5 hydrolysis via fluorescence at a range of inhibitor concentrations. Inhibitors were stored either as solids or as 100 mM stock solutions in DMSO, these were diluted to appropriate concentrations in the assay buffer. Typically inhibition assays were carried out using black 384 well format pclear® plates (Griener Bio-One) with a final assay volume of 25 μL. Enzyme concentrations were chosen to give a linear rate of FC5 hydrolysis over the first 5 min of the assay time with an FC5 concentration of 5 μM. Components were added in the following order and volumes:
# The enzyme was incubated with the inhibitor for 10 min prior to initiation of the reaction by the addition of the substrate. The residual activities were calculated using the following formula:
# [formula] IC50 values were calculated by fitting of residual residual activity curves using GraphPad Prism 5 software.
# L2 (class A ESBL), sequence (P96465 36-303 limits assumed): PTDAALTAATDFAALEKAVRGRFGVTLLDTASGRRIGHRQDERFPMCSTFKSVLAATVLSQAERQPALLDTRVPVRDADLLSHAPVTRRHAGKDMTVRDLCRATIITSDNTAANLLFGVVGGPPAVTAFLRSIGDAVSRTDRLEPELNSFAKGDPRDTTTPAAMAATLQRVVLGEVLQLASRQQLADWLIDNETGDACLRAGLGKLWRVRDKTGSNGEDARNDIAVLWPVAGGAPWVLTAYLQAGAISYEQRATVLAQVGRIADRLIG
smiles,measurement,setting,value
CC(C)(O/N=C(\C(=O)N[C@@H]1C(=O)N2C(C(=O)[O-])=C(C[n+]3ccccc3)CS[C@H]12)c1csc(N)n1)C(=O)O [Ceftazidime],Km,L2 (class A ESBL),548 µM
same,kcat,L2 (class A ESBL),1.88 s⁻¹
same,kcat/KM,L2 (class A ESBL),3.4 (μM^−1 · s^−1) × 10^−3
same,MIC of the β-lactam alone (−),S. maltophilia; CI-20,16 µg/mL
same,MIC of the β-lactam alone (−),S. maltophilia; CI-29,8 µg/mL
same,MIC of the β-lactam alone (−),S. maltophilia; CI-31,256 µg/mL
same,MIC of the β-lactam alone (−),S. maltophilia; K279a,4 µg/mL
same,MIC of the β-lactam alone (−),S. maltophilia; K AMI 32,2 µg/mL
same,MIC of the β-lactam alone (−),S. maltophilia; K CAZ 10,64 µg/mL
same,MIC of the β-lactam alone (−),S. maltophilia; K MOX 8,4 µg/mL
same,Km,L1 (class B3 MBL),260 µM
same,kcat,L1 (class B3 MBL),1.67 s⁻¹
same,kcat/KM,L1 (class B3 MBL),6.4 (μM^−1 · s^−1) × 10^−3
C[C@@H](O)[C@H]1C(=O)N2C(C(=O)O)=C([C@H]3CCCO3)S[C@H]12 [Faropenem],IC50,BlaC; pre-incubation time 0 min,3.72 µM
same,IC50,BlaC; pre-incubation time 10 min,2.51 µM
same,IC50,BlaC; pre-incubation time 60 min,3.55 µM
C[C@]1(Cn2ccnn2)[C@H](C(=O)O)N2C(=O)C[C@H]2S1(=O)=O [Tazobactam],IC50,BlaC; pre-incubation time 0 min,6.46 µM
same,IC50,BlaC; pre-incubation time 10 min,2.75 µM
same,IC50,BlaC; pre-incubation time 60 min,3.55 µM
C[C@H]1[C@H](NC(=O)/C(=N\OC(C)(C)C(=O)O)c2csc(N)n2)C(=O)N1S(=O)(=O)O [Aztreonam],MIC,"S. maltophilia; read-out: MIC of the β-lactam alone (−), CI-20",128 µg/mL
same,MIC,"S. maltophilia; read-out: MIC of the β-lactam alone (−), CI-29",128 µg/mL
same,MIC,"S. maltophilia; read-out: MIC of the β-lactam alone (−), CI-31",256 µg/mL
same,MIC,"S. maltophilia; read-out: MIC of the β-lactam alone (−), K279a",128 µg/mL
same,MIC,"S. maltophilia; read-out: MIC of the β-lactam alone (−), K AMI 32",128 µg/mL
same,MIC,"S. maltophilia; read-out: MIC of the β-lactam alone (−), K CAZ 10",256 µg/mL
same,MIC,"S. maltophilia; read-out: MIC of the β-lactam alone (−), K MOX 8",128 µg/mL
